Holding throughout (test): cells
Design in all cases: species or system NCI-60 human tumour cell lines; NCI-60 five-dose growth inhibition screen, sulforhodamine B protein stain
(Sulforhodamine B stains cellular protein and so reports cell mass.)

The test system of one assay is CAKI-1. The conditions noted are these: Homo sapiens, CAKI-1, 48 h. On the procedure: (§1) All the newly synthesised 28 compounds were selected for single-dose testing. NCI60 single-dose testing is performed in all 60 cell lines according to the reported assay (National Cancer Institute, https://dtp.cancer.gov/) (National Cancer Institute https://dtp.cancer.gov/discovery_development/nci-60/), compounds were dissolved in DMSO: glycerol […] and are stored in a −70 °C freezer. The prepared compounds were added at single concentration of 1 0^−5 M and the culture was incubated for 48 h. End point determinations were made with a protein binding dye, sulforhodamine B (SRB). The human tumour cell lines were derived from nine different cancer types: leukaemia, melanoma, lung, colon, central nervous system (CNS), ovarian, renal, prostate, and breast cancers. Dose–response curves for these compounds were created by plotting the percentage growth (PGs or % growth) against log10 of the corresponding concentration for every cell line. Three response parameters, GI50 (Median Growth Inhibitory Concentration), TGI (Total Growth Inhibitory Concentration), and LC50 (Median Lethal Concentration) were calculated[54] (National Cancer Institute, https://dtp.cancer.gov/discovery_development/nci-60/) (National Cancer Institute, https://dtp.cancer.gov/)[55] for compounds 5a and 6a. […] Furthermore, the average sensitivity of all cell lines towards the compound is termed as the full panel mean graph midpoints (MG-MID). The ratio obtained by dividing the full panel mean graph midpoints (MG-MID) concentration by the individual subpanel MG-MID concentrations (obtained as the average sensitivity of all cell lines of a particular subpanel towards the test compound) is considered a criterion for the compound selectivity towards the corresponding cell line. Ratios greater than 6 indicate high selectivity while ratios between 3 and 6 refer to moderate selectivity whereas compounds not meeting either of these criteria were rated non-selective[56].

A further assay has as its system COLO 205. The conditions noted are these: Homo sapiens, COLO 205, 48 h. On the procedure: as §1
A further assay concerns 786-0. Conditions: Homo sapiens, 786-0, 48 h. On the procedure:
as §1

Another assay relates to KM12. Conditions: Homo sapiens, KM12, 48 h. As to the method:
as §1

A further assay deals with SNB-75. The conditions noted are these: Homo sapiens, SNB-75, 48 h. As to the method: as §1
A further assay concerns SW-620. The conditions noted are these: Homo sapiens, SW-620, 48 h. On the procedure:
as §1

A further assay relates to HCT-116. Conditions: Homo sapiens, HCT-116, 48 h. As to the method:
as §1

For another assay, the system named is A549/ATCC. Conditions: Homo sapiens, A549, 48 h. On the procedure:
as §1

Another assay concerns SN12C. Conditions: Homo sapiens, SN12C, 48 h. On the procedure:
as §1

Another assay relates to MALME-3M. The conditions noted are these: Homo sapiens, Malme-3M, 48 h. On the procedure:
as §1

In another assay the test system is NCI/ADR-RES. The conditions noted are these: Homo sapiens, NCI/ADR-RES, 48 h. On the procedure: as §1
The test system of another assay is DU-145. Conditions: Homo sapiens, DU-145, 48 h. As to the method:
as §1

For a further assay, the system named is MCF7. Conditions: Homo sapiens, MCF7, 48 h. On the procedure: as §1
For a further assay, the system named is SR. The conditions noted are these: Homo sapiens, SR, 48 h. As to the method: as §1
A further assay relates to SNB-19. The conditions noted are these: Homo sapiens, SNB-19, 48 h. As to the method: as §1
Another assay concerns HT29. Conditions: Homo sapiens, HT-29, 48 h. As to the method: as §1
The next assay relates to NCI-H522. The conditions noted are these: Homo sapiens, NCI-H522, 48 h. As to the method:
as §1

Like-named read-outs stand apart in the source and are kept apart here.

The term GI50 denotes the concentration giving 50% growth inhibition. For the molecule `N=C(NO)C1=C(N)Oc2c(ccc3ccccc23)C1c1ccccc1` (stereo not shown) [5a, 2-Amino-4-phenyl-N-hydroxy-4H-benzo[h]chromene-3-carboxamidine], the concentration for 50% growth inhibition (GI50) in the assay with CAKI-1 (read-out: GI50 5a) is 100 nM; in the assay on COLO 205 (read-out: GI50 5a) it was 460 nM; with 786-0 (read-out: GI50 5a) it was 560 nM; with KM12 (read-out: GI50 5a) it was 220 nM; with SNB-75 (read-out: GI50 5a), 80 nM; in the assay with SW-620 (read-out: GI50 5a), 170 nM. In addition, the GI50 in the assay on HCT-116 (read-out: GI50 5a) turned out to be 410 nM; in the assay on A549/ATCC (read-out: GI50 5a), 420 nM; in the assay on SN12C (read-out: GI50 5a), 530 nM; in the assay on MALME-3M (read-out: GI50 5a) it was 15600 nM; in the assay on NCI/ADR-RES (read-out: GI50 5a), 60 nM; in the assay with DU-145 (read-out: GI50 5a) it was 460 nM. Besides, the 50% growth inhibitory concentration (GI50) in the assay on MCF7 (read-out: GI50 5a) turned out to be 210 nM; with SR (read-out: GI50 5a), 100 nM; with SNB-19 (read-out: GI50 5a) it was 490 nM; in the assay on HT29 (read-out: GI50 5a), 480 nM; with NCI-H522 (read-out: GI50 5a), 60 nM.

Regarding `CC(=O)NC1=C(C#N)C(c2ccccc2)c2ccc3ccccc3c2O1` (stereo not shown) [6a, N-(3-Cyano-4-phenyl-4H-benzo[h]chromen-2-yl)acetamide], the GI50 in the assay on CAKI-1 (read-out: GI50 6a) was determined as 340 nM; with COLO 205 (read-out: GI50 6a) it was 610 nM; with 786-0 (read-out: GI50 6a) it was 490 nM; in the assay with KM12 (read-out: GI50 6a), 430 nM; in the assay with SNB-75 (read-out: GI50 6a) it was 240 nM; with SW-620 (read-out: GI50 6a) it was 410 nM. For the same molecule, the 50% growth inhibitory concentration (GI50) with HCT-116 (read-out: GI50 6a) worked out at 430 nM; in the assay with A549/ATCC (read-out: GI50 6a), 980 nM; with SN12C (read-out: GI50 6a), 700 nM; in the assay with MALME-3M (read-out: GI50 6a), 670 nM; in the assay on NCI/ADR-RES (read-out: GI50 6a) it was 300 nM; with DU-145 (read-out: GI50 6a) it was 730 nM. For the same molecule, the GI50 was found to be 470 nM in the assay on MCF7 (read-out: GI50 6a); 470 nM in the assay with SR (read-out: GI50 6a); 780 nM in the assay on SNB-19 (read-out: GI50 6a); 380 nM with HT29 (read-out: GI50 6a); 220 nM in the assay on NCI-H522 (read-out: GI50 6a).

The record behind these values is article PMC9721423, “Novel benzo chromene derivatives: design, synthesis, molecular docking, cell cycle arrest, and apoptosis induction in human acute myeloid leukemia HL-60 cells” (Journal of Enzyme Inhibition and Medicinal Chemistry, 2022).
